Assay results: patent US20260062422A1 (Halda Therapeutics OpCo, Inc., priority 2022, published 2026)

How the values were obtained:
[1] = tested on: T47D cells; assay: Cellular growth inhibition assay for T47D cells, CellTiter-Glo; format: cell-based, human; conditions: 72 hours treatment, CellTiter-Glo 2.0 cell viability
Method in brief: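 Cells are plated at 3000/well and allowed 24 h before treatment. Test compound in medium containing 0.5% DMSO is then added, with DMSO-only wells as negative control, and plates are incubated 72 h at 37 °C. ATP luminescence (CellTiter-Glo 2.0) is then fitted to four parameters to derive GI50.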

[2] = tested on: T-Rex 293 cell line SC3 cells lacking increased expression of androgen receptor protein; assay: Cellular growth inhibition, T-Rex 293 SC3 cells without doxycycline, CellTiter-Glo; format: cell-based; conditions: T-Rex 293 SC3 cells not exposed to doxycycline, CellTiter-Glo 2.0
Method in brief: (§1)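 Doxycycline-inducible androgen receptor T-Rex 293 clone SC3, seeded at 2500/well in phenol red-free DMEM with 10% charcoal-dextran FBS, without doxycycline or with 10 ng/mL to induce receptor. Compound added after 24 h (0.5% DMSO), 72 h at 37 °C; CellTiter-Glo 2.0 luminescence, GI50 by four-parameter fit.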

[3] = tested on: VCaP cells; assay: Cellular growth inhibition assay for VCaP cells, CellTiter-Glo; format: cell-based, human; conditions: 72 hours treatment, CellTiter-Glo 2.0
Method in brief: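 GI50 values come from four-parameter curve fits of luminescence data normalized to a zero baseline. Compound, in medium with 0.5% DMSO, was added one day after plating and left for 72 h before CellTiter-Glo 2.0 addition.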

[4] = tested on: T-Rex 293 cell line SC3 cells having increased expression of androgen receptor protein due to exposure to doxycycline; assay: Cellular growth inhibition, T-Rex 293 SC3 cells with doxycycline (androgen receptor induced), CellTiter-Glo; format: cell-based; conditions: T-Rex 293 SC3 cells with 10 ng/mL doxycycline (increased androgen receptor expression)
Method in brief: as §1

GI50 [1] [nM] | GI50 [3] [nM] | GI50 ([1]; Homo sapiens, T47D, 72 h) [nM] | GI50 ([3]; Homo sapiens, VCaP, 72 h) [nM] | SMILES | GI50 ([2]; 72 hours) [nM] | GI50 ([4]; 72 hours) [nM] | GI50 ([2]; 72 h) [nM] | GI50 ([4]; 72 h) [nM]
< 500 | > 3000 |  |  | Cc1sc2c(c1C)C(c1ccc([C@H]3C[C@H](C[C@@H]4CCCN(c5ncc(C(=O)N[C@H]6C(C)(C)[C@H](Oc7ccc(C#N)c(Cl)c7)C6(C)C)cn5)C4)C3)cc1)=N[C@@H](Cc1ncco1)c1nnc(C)n1-2 [Compound I-403] | > 3000 | < 500 |  | 
 |  | > 3000 | > 3000 | Cc1sc2c(c1C)C(c1ccc([C@H]3CC[C@]4(C3)CN(c3ncc(C(=O)N[C@H]5C(C)(C)[C@H](Oc6ccc(C#N)c(Cl)c6)C5(C)C)cn3)CCO4)cc1)=N[C@@H](Cc1ncco1)c1nnc(C)n1-2 [Compound I-404] |  |  | > 3000 | > 3000
 |  | < 500 | < 500 | Cc1sc2c(c1C)C(c1ccc([C@@H]3CC[C@]4(C3)CN(c3ncc(C(=O)N[C@H]5C(C)(C)[C@H](Oc6ccc(C#N)c(Cl)c6)C5(C)C)cn3)CCO4)cc1)=N[C@@H](Cc1ncco1)c1nnc(C)n1-2 [Compound I-405] |  |  | 500 to 1500 | < 500
 |  | < 500 | < 500 | Cc1sc2c(c1C)C(c1ccc([C@@H]3CC[C@@]4(C3)CN(c3ncc(C(=O)N[C@H]5C(C)(C)[C@H](Oc6ccc(C#N)c(Cl)c6)C5(C)C)cn3)CCO4)cc1)=N[C@@H](Cc1ncco1)c1nnc(C)n1-2 [Compound I-406] |  |  | > 3000 | < 500
 |  | < 500 | < 500 | Cc1sc2c(c1C)C(c1ccc(-c3nnc(OC4CCN(c5ncc(C(=O)N[C@H]6C(C)(C)[C@H](Oc7ccc(C#N)c(Cl)c7)C6(C)C)cn5)CC4)s3)cc1)=N[C@@H](Cc1ncco1)c1nnc(C)n1-2 [Compound I-407] |  |  | < 500 | < 500
 |  | < 500 | 500 to 1500 | Cc1sc2c(c1C)C(c1ccc(-c3csc(OC4CCN(c5ncc(C(=O)N[C@H]6C(C)(C)[C@H](Oc7ccc(C#N)c(Cl)c7)C6(C)C)cn5)CC4)n3)cc1)=N[C@@H](Cc1ncco1)c1nnc(C)n1-2 [Compound I-408] |  |  | > 3000 | < 500
 |  | < 500 | > 3000 | Cc1sc2c(c1C)C(c1ccc(-c3ccc(OC4CCN(c5ncc(C(=O)N[C@H]6C(C)(C)[C@H](Oc7ccc(C#N)c(Cl)c7)C6(C)C)cn5)CC4)s3)cc1)=N[C@@H](Cc1ncco1)c1nnc(C)n1-2 [Compound I-409] |  |  | > 3000 | < 500
 |  | > 3000 | > 3000 | Cc1sc2c(c1C)C(c1ccc(O[C@H]3C[C@]4(CCCN(c5ncc(C(=O)N[C@H]6C(C)(C)[C@H](Oc7ccc(C#N)c(Cl)c7)C6(C)C)cn5)C4)C3)cc1)=N[C@@H](C)c1nnc(C)n1-2 [Compound I-410] |  |  | > 3000 | < 500
 |  | 500 to 1500 | < 500 | Cc1sc2c(c1C)C(c1ccc(OC3CC4(C3)CC3(CCN(c5ncc(C(=O)N[C@H]6C(C)(C)[C@H](Oc7ccc(C#N)c(Cl)c7)C6(C)C)cn5)CC3)C4)cc1)=N[C@@H](C)c1nnc(C)n1-2 [Compound I-411] |  |  | > 3000 | < 500
 |  | < 500 | > 3000 | Cc1sc2c(c1C)C(c1ccc(OC3CC4(C3)CC3(CCN(c5cnc(C(=O)N[C@H]6C(C)(C)[C@H](Oc7ccc(C#N)c(Cl)c7)C6(C)C)cn5)CC3)C4)cc1)=N[C@@H](C)c1nnc(C)n1-2 [Compound I-412] |  |  | > 3000 | > 3000
 |  | > 3000 | > 3000 | Cc1sc2c(c1C)C(c1ccc([C@H]3C[C@@H]([C@@H]4CCN(c5ncc(C(=O)N[C@H]6C(C)(C)[C@H](Oc7ccc(C#N)c(Cl)c7)C6(C)C)cn5)C4)C3)cc1)=N[C@@H](Cc1ncco1)c1nnc(C)n1-2 [Compound I-413] |  |  | > 3000 | > 3000
 |  | > 3000 | > 3000 | Cc1sc2c(c1C)C(c1ccc([C@H]3C[C@H]([C@@H]4CCN(c5ncc(C(=O)N[C@H]6C(C)(C)[C@H](Oc7ccc(C#N)c(Cl)c7)C6(C)C)cn5)C4)C3)cc1)=N[C@@H](Cc1ncco1)c1nnc(C)n1-2 [Compound I-414] |  |  | > 3000 | > 3000
 |  | > 3000 | > 3000 | Cc1sc2c(c1C)C(c1ccc([C@H]3C[C@@H]([C@H]4CCN(c5ncc(C(=O)N[C@H]6C(C)(C)[C@H](Oc7ccc(C#N)c(Cl)c7)C6(C)C)cn5)C4)C3)cc1)=N[C@@H](Cc1ncco1)c1nnc(C)n1-2 [Compound I-415] |  |  | > 3000 | > 3000
 |  | < 500 | < 500 | Cc1sc2c(c1C)C(c1ccc([C@H]3C[C@H]([C@H]4CCN(c5ncc(C(=O)N[C@H]6C(C)(C)[C@H](Oc7ccc(C#N)c(Cl)c7)C6(C)C)cn5)C4)C3)cc1)=N[C@@H](Cc1ncco1)c1nnc(C)n1-2 [Compound I-416] |  |  | > 3000 | < 500
 |  | < 500 | < 500 | Cc1sc2c(c1C)C(c1ccc([C@H]3C[C@@H]([C@H]4CCN(c5ncc(C(=O)N[C@H]6C(C)(C)[C@H](Oc7ccc(C#N)c(Cl)c7)C6(C)C)cn5)C4)C3)cc1)=N[C@H](Cc1ncco1)c1nnc(C)n1-2 [Compound I-417] |  |  | < 500 | < 500
 |  | < 500 | < 500 | Cc1sc2c(c1C)C(c1ccc([C@H]3C[C@H]([C@H]4CCN(c5ncc(C(=O)N[C@H]6C(C)(C)[C@H](Oc7ccc(C#N)c(Cl)c7)C6(C)C)cn5)C4)C3)cc1)=N[C@H](Cc1ncco1)c1nnc(C)n1-2 [Compound I-418] |  |  | < 500 | < 500
 |  | > 3000 | > 3000 | Cc1sc2c(c1C)C(c1ccc([C@H]3C[C@@H]([C@@H]4CCCN(c5ncc(C(=O)N[C@H]6C(C)(C)[C@H](Oc7ccc(C#N)c(Cl)c7)C6(C)C)cn5)C4)C3)cc1)=N[C@@H](Cc1ncco1)c1nnc(C)n1-2 [Compound I-419] |  |  | > 3000 | > 3000
 |  | > 3000 | > 3000 | Cc1sc2c(c1C)C(c1ccc([C@H]3C[C@H]([C@H]4CCCN(c5ncc(C(=O)N[C@H]6C(C)(C)[C@H](Oc7ccc(C#N)c(Cl)c7)C6(C)C)cn5)C4)C3)cc1)=N[C@@H](Cc1ncco1)c1nnc(C)n1-2 [Compound I-420] |  |  | > 3000 | > 3000
 |  | < 500 | < 500 | Cc1sc2c(c1C)C(c1ccc([C@H]3C[C@@H]([C@H]4CCCN(c5ncc(C(=O)N[C@H]6C(C)(C)[C@H](Oc7ccc(C#N)c(Cl)c7)C6(C)C)cn5)C4)C3)cc1)=N[C@@H](Cc1ncco1)c1nnc(C)n1-2 [Compound I-421] |  |  | > 3000 | < 500
 |  | < 500 | < 500 | Cc1sc2c(c1C)C(c1ccc([C@H]3C[C@H]([C@@H]4CCCN(c5ncc(C(=O)N[C@H]6C(C)(C)[C@H](Oc7ccc(C#N)c(Cl)c7)C6(C)C)cn5)C4)C3)cc1)=N[C@@H](Cc1ncco1)c1nnc(C)n1-2 [Compound I-422] |  |  | > 3000 | < 500
500 to 1500 | < 500 |  |  | Cc1sc2c(c1C)C(c1ccc([C@H]3C[C@H]([C@@H]4CCCN(c5ncc(C(=O)N[C@H]6C(C)(C)[C@H](Oc7ccc(C#N)c(Cl)c7)C6(C)C)cn5)C4)C3)cc1)=N[C@@H](Cc1ncco1)c1nnc(C)n1-2 [Compound I-423] | > 3000 | < 500 |  | 
 |  | < 500 | < 500 | Cc1sc2c(c1C)C(c1ccc(CCN3CC[C@]4(C3)CN(c3ncc(C(=O)N[C@H]5C(C)(C)[C@H](Oc6ccc(C#N)c(Cl)c6)C5(C)C)cn3)CC(F)(F)C4)cc1)=N[C@@H](Cc1ncco1)c1nnc(C)n1-2 [Compound I-424] |  |  | > 3000 | < 500
 |  | < 500 | < 500 | Cc1sc2c(c1C)C(c1ccc(CCN3CC[C@@]4(C3)CN(c3ncc(C(=O)N[C@H]5C(C)(C)[C@H](Oc6ccc(C#N)c(Cl)c6)C5(C)C)cn3)CC(F)(F)C4)cc1)=N[C@@H](Cc1ncco1)c1nnc(C)n1-2 [Compound I-425] |  |  | > 3000 | < 500
 |  | < 500 | < 500 | Cc1sc2c(c1C)C(c1ccc(C[C@H]3C[C@@H](OC4CCN(c5ncc(C(=O)N[C@H]6C(C)(C)[C@H](Oc7ccc(C#N)c(Cl)c7)C6(C)C)cn5)CC4)C3)cc1)=N[C@@H](Cc1ncco1)c1nnc(C)n1-2 [Compound I-426] |  |  | > 3000 | < 500
< 500 | < 500 |  |  | Cc1sc2c(c1C)C(c1ccc(C[C@H]3C[C@@H](OC4CCN(c5ncc(C(=O)N[C@H]6C(C)(C)[C@H](Oc7ccc(C#N)c(Cl)c7)C6(C)C)cn5)CC4)C3)cc1)=N[C@@H](Cc1ncco1)c1nnc(C)n1-2 [Compound I-427] | > 3000 | < 500 |  | 
 |  | > 3000 | > 3000 | Cc1sc2c(c1C)C(c1ccc([C@H]3CC[C@@]4(C3)CN(c3ncc(C(=O)N[C@H]5C(C)(C)[C@H](Oc6ccc(C#N)c(Cl)c6)C5(C)C)cn3)CCO4)cc1)=N[C@@H](Cc1ncco1)c1nnc(C)n1-2 [Compound I-428] |  |  | > 3000 | < 500
